Values quoted from earlier work, collected in US5116619A, “Vaginal progesterone tablet” (priority 1988, dated 1992).

CC(=O)[C@H]1CC[C@H]2[C@@H]3CCC4=CC(=O)CC[C@]4(C)[C@H]3CC[C@]12C [progesterone, pregn-4-ene-3,20-dione]
plasma half-life (endogenous progesterone): a few minutes
administered radiolabeled progesterone in feces (feces): about 10%
serum levels after oral administration (in vivo, po): significant but highly variable serum levels
first half-life (intravenous injections): 5 to 6 min
second half-life (intravenous injections): 42 to 45 min
local tolerability of deep intramuscular injections (parenteral, site of injection): often very painful and irritating at the site of injection
absorption by the rectal route (rectal, Steege et al.): highly variable
time in which all exogenous progesterone is metabolized (suggested by Myers et al.): ≤ 24 h
administered radiolabeled progesterone in urine (urine): 50 to 60%
